Experimental data from patent US5225404A, “Methods of treating colon tumors with tumor-inhibiting camptothecin compounds” (New York University, priority 1989, dated 1993).
Entries after “also recorded” stand apart in the source; their conditions may differ. Counter-ions that a name gives are not always drawn. Like-named read-outs stand apart in the source and are kept apart here.

Experiments:
human colon cancer HT-29 = assay: HT-29 human colon cancer xenograft in immunodeficient mice (Example 2); format: in vivo, human (xenograft in immunodeficient NIH-1 mice)
Description: (§1) In these four examples, three xenograft lines of human colon cancer were selected to test the effectiveness of various drugs or compounds in treating human colon cancer. These xenograft lines included the following: (1) A moderate-to-poorly differentiated human colon cancer HT-29; (2) poorly differentiated colon cancer lines designated CASE; and (3) SW48. Liebowitz, A. et al., Cancer Res. 36:4562 (1976); and Fogh, J., et al., Human Tumor Cells […], J. Fogh, ed. Plenum Press, New York, pp. 115-159 (1975). The HT-29, CASE and SW48 cell lines were implanted into immunodeficient NIH-1 mice. Each control or drug-treated group included 6 males. Tumor fragments were implanted on day 0. For each implant, 50 mg of wet weight finely minced tumor tissue in 0.5 ml EMEM (Gibco, Grand Island, N.Y.) was injected under the skin over the right dorsal chest region. The drugs were formulated in Tween 80:0.15 NaCl and injected subcutaneously, with the exception of doxorubicin, which was injected intravenously. The treatment started on day 7 and continued 2x/week for 5-6 weeks. Drug doses were based on an established median toxic dose for the schedule applied. Controls were treated with the solvent only. The tumors were measured in three dimensions with a caliper, and tumor volume calculated. The care and treatment of experimental mice was in accordance with institutional guidelines.
In FIG. 2, 9-AC represents 9-amino-20(RS)-camptothecin. The means of tumor volumes in cubic centimeters (cm^3) were plotted against time; S.D. (standard deviation) of the means was less than 15% of the value.

CASE cell line = assay: CASE human colon cancer xenograft in immunodeficient mice (Examples 3, 4, 6); format: in vivo, human (xenograft in immunodeficient NIH-1 mice)
Description: as §1
In Example 3, the CASE cell line was employed.
Example 4 illustrates the results of an experiment in which a second course of treatment followed a first course of treatment. On day 51 after tumor implantation, mice with CASE tumors and minimal disease received the second course of therapy. These mice received a total of 14 injections (doses) of 12.5 mg/kg body weight/dose (FIG. 4).
(§2) Daily injections or 2 injections per week of 10,11-methylenedioxy-20(RS)-camptothecin (total doses 50-70 mg/kg of body weight) stopped the growth of day-7 CASE tumors for a period of 4-6 weeks in 6/6 mice. Five injections of 10,11-methylenedioxy-20(RS)-camptothecin sodium salt (10 mg/kg body weight/dose) stopped the growth of day-7 CASE tumors in 6/6 mice for a period of 4 weeks. Both drugs inhibited at 30 mg/kg body weight (total dose) the growth of metastases of human colon cancer in the liver of immunodeficient mice, and increased the survival of such mice by ~100% (from average of 23 to 46 days).

[1] = system: SW48 human colon cancer cell line; assay: SW48 human colon cancer xenograft in immunodeficient mice (Example 5); format: in vivo, human (xenograft in immunodeficient NIH-1 mice)
Description: as §1
In Example 5, a course of treatment was carried out with the SW48 human colon cancer cell line. This tumor line is extremely unresponsive to treatment. Liebowitz, A., et al., Cancer Res. 36:4562 (1976); and Fogh, J., et al., Human Tumor Cells in Vitro, J. Fogh, ed. Plenum Press, New York, pp. 115-159 (1975).
It should be noted that the first course of treatments of the CASE and SW48 lines, described above, started with well-established tumors, averaging 0.2-0.25 cm^3 in volume. In Example 5, day=35 SW48 tumors (average size 2.5 cm^3), were selected for the first treatment with 9-amino-20(RS)-camptothecin. […]

[2] = overall toxicity in tumor-bearing mice (Example 7); format: in vivo
Description: Another important feature of the method provided by the present invention relates to the relatively low or no apparent overall toxicity of the camptothecin compounds administered in accordance herein. Overall toxicity can be judged using various criteria. For example, loss of body weight in a subject over 10% of the initially recorded body weight (i.e., before treatment) can be considered as one sign of toxicity. In addition, loss of overall mobility and activity and signs of diarrhea or cystitis in a subject can also be interpreted as evidence of toxicity. In one of the examples which follow, the overall toxicity of the camptothecin compounds was evaluated.
The overall toxicity of the colon tumor-inhibiting camptothecin compounds was next to be evaluated at various dosages. The overall toxicity of 9-amino-20(RS)-camptothecin, 10,11-methylenedioxy-camptothecin and the sodium salt of 10,11-methylenedioxy-camptothecin was evaluated in this example as follows: tumor fragments were implanted under the skin of 5-6 mice in each group beginning on day 0. The mice were injected with one of the compounds beginning on day 7 after visible signs that malignant growth of the implanted tumor had occurred. The injections of the compound were given at predetermined doses of 10 or 12.5 mg/kg of body weight per week for a total of 3-6 weeks. Injections were daily or given two times per week. The body weights of the controls (mice with tumors, injected with placebo) and that of the drug-treated mice were taken two times each week and recorded. Overall toxicity was determined in the following way: loss of body weight after treatment in a subject of more than 10% over the initial body weight of the subject recorded at the beginning of the experiment, was considered a sign of toxicity. The mice were also monitored for their ability to regain the lost body weight. Regaining entirely its lost body weight would therefore be a sign of low toxicity in a subject. In addition, mice were monitored for their overall mobility and activity as well as for signs of diarrhea or cystitis. Mobility/activity was judged on a sliding scale of 1 to 5. That is, a score of 1 indicated good mobility/activity and a score of 5 indicated poor mobility/activity. Diarrhea and cystitis were judged on a plus/minus basis.

subcutaneous tumors = format: in vivo, mice
topoisomerase I = assay: topoisomerase I-directed screens; format: biochemical
[3] = system: metastases of human colon cancer in the liver; assay: metastases of human colon cancer in the liver of immunodeficient mice (Example 6); format: in vivo; settings: 30 mg/kg body weight (total dose); for increase of survival: from average of 23 days; for average survival: increased from 23 days
Procedure: as §2

colon cancer = settings: cited from earlier work
[4] = system: advanced incurable cancers; settings: cited from earlier work
[5] = first course, 12.5 mg/kg body weight
[6] = five injections, 10 mg/kg body weight/dose
[7] = daily treatment, total dose 25 mg/kg
[8] = daily or 2 injections per week, total doses 50-70 mg/kg
[9] = patients with metastases to the liver

CCC1(O)C(=O)OCc2c1cc1n(c2=O)Cc2cc3c(N)cccc3nc2-1 (racemic) [9-amino-20(RS)-camptothecin]
duration of remission (mean+S.D.) (human colon cancer HT-29; 10 mg/kg body weight/dose): 62 ± 20 days
mice with no evidence of disease (NED) or minimal disease (tumor volume=0.1 cm^3) (human colon cancer HT-29; 10 mg/kg/dose s.c., twice a week, 6 weeks): 5/6
duration of remission (mean+S.D.) (human colon cancer HT-29; 12.5 mg/kg body weight/dose): 56 ± 15 days
mice with NED or minimal disease (human colon cancer HT-29; 12.5 mg/kg body weight/dose): 6/6
reduction of tumor volume (average) (human colon cancer HT-29; second course, average tumor size 8.3 cm^3, total dose 60 mg/kg): 45%
long-term tumor-free survival (in excess of 7 months) (CASE cell line; CASE tumors, after second course): 7/8
mice with NED or minimal disease (CASE cell line; [5]): 6/6
mice with NED (CASE cell line; second course, total of 14 doses of 12.5 mg/kg): 5/6
mice with minimal disease (CASE cell line; second course, total of 14 doses of 12.5 mg/kg, of 6 mice): the other had minimal disease
long-term tumor-free survival (in excess of 7 months) ([1]; after second course, 75 mg/kg total dose): 6/6
mice with NED or minimal disease [1, 5]: 6/6
reduction in the volume of the tumors (average) ([1]; first treatment of day 35 tumors (average 2.5 cm^3), 6 doses of 12.5 mg/kg, twice a week): 91%
gastrointestinal toxicity or sterile hemorrhagic cystitis ([2]; second course, 50-75 mg/kg): no signs
toxicity of second course of treatment ([2]; second course, 50-75 mg/kg body weight): more toxic than the first
Overall Toxicity ([2]; twice/week treatment, total dose 150 mg/kg, 150 mg/kg): no overall toxicity
Overall Toxicity ([2]; twice/week treatment, total dose 150 mg/kg, listed as 9-Amino-20(RS)-camptothecin, 150 mg/kg): none
Overall Toxicity: body weight loss ([2]; twice/week treatment, total dose 175 mg/kg (cumulative)): ≤ 20%
therapeutic response (in words) (subcutaneous tumors; mouse, in vivo): completely reducing subcutaneous tumors; also recorded: complete reduction of subcutaneous tumors

CCC(O)(C(=O)O)c1cc2n(c(=O)c1CO)Cc1cc3cc4c(cc3nc1-2)OCO4 (racemic) [sodium salt of 10,11-methylenedioxy-20(RS)-camptothecin]
mice in which growth of day-7 tumors stopped (CASE cell line; [6]): 6/6
period for which growth of day-7 tumors stopped (CASE cell line; [6]): 4 weeks
activity in topoisomerase I-directed screens (topoisomerase I): highly active
growth of metastases of human colon cancer in the liver [3]: inhibited
increase of survival [3]: ~ 100%
average survival [3]: 46 days
toxic deaths ([2]; 62.5 mg/kg body weight): toxic deaths of all animals
Overall Toxicity [2, 7]: animal deaths
Overall Toxicity: body weight loss [2, 7]: < 10%
Overall Toxicity ([2]; daily treatment, total dose 200 mg/kg): animal deaths
Overall Toxicity: body weight loss ([2]; twice/week treatment, total dose 50 mg/kg): 20%
Overall Toxicity ([2]; twice/week treatment, total dose 62.5 mg/kg): animal deaths

CCC1(O)C(=O)OCc2c1cc1n(c2=O)Cc2cc3cc(N)ccc3nc2-1 (racemic) [10-amino-20(RS)-camptothecin, reference compound]
toxic deaths ([2]; 25 mg/kg body weight): toxic deaths of all animals
Overall Toxicity: body weight loss ([2]; twice/week treatment, total dose 100 mg/kg): < 15%

CCC1(O)C(=O)OCc2c1cc1n(c2=O)Cc2cc3cc4c(cc3nc2-1)OCO4 (racemic) [10,11-methylenedioxy-20(RS)-camptothecin]
mice in which growth of day-7 tumors stopped (CASE cell line; [8]): 6/6
period for which growth of day-7 tumors stopped (CASE cell line; [8]): 4-6 weeks
activity in topoisomerase I-directed screens (topoisomerase I): highly active
growth of metastases of human colon cancer in the liver [3]: inhibited
increase of survival [3]: ~ 100%
average survival [3]: 46 days
decrease of body weight ([2]; 70 mg/kg body weight (total dose)): less than 10%
Overall Toxicity ([2]; twice/week treatment, total dose 100 mg/kg, 100 mg/kg): no overall toxicity
Overall Toxicity ([2]; twice/week treatment, total dose 100 mg/kg, listed as 10,11-Methylenedioxy-20(RS), 100 mg/kg): none
Overall Toxicity ([2]; twice/week treatment, total dose 100 mg/kg, listed as 10,11-methylenedioxy-20(RS) camptothecin, 100 mg/kg): no overall toxicity
therapeutic response (in words) (subcutaneous tumors; 100 mg/kg, two times per week): complete reduction of subcutaneous tumors
therapeutic response (in words) (subcutaneous tumors; 100 mg/kg, two times per week, listed as 10,11-methylenedioxy-20(RS) camptothecin): completely reducing subcutaneous tumors

O=c1[nH]cc(F)c(=O)[nH]1 [5-fluorouracil]
growth-retardation of tumor implants (human colon cancer HT-29; 80 mg/kg of body weight/dose): only marginal growth-retardation
effectiveness in treating colon cancer (colon cancer; human, in vivo): only marginally effective
cases with temporary improvement (colon cancer; [9]): ≤ 25%
overall survival (colon cancer; [9]): not significantly affected

CC[C@@](O)(C(=O)O)c1cc2n(c(=O)c1CO)Cc1cc3ccccc3nc1-2 [sodium salt of 20(S)-camptothecin]
limiting factor (toxicity) ([4]; patients with various cancers): Leukopenia
most prominent non-hematological complication ([4]; patients with various cancers): Hemorrhagic cystitis
gastrointestinal toxicity or sterile hemorrhagic cystitis observed among patients ([4]; patients): observed
clinical response ([4]; several patients, some with colorectal cancer, unresponsive to previous treatments): temporary relief of the disease
median survival (in words) ([4]; several patients, some with colorectal cancer): marginal prolongation of median survival

CN(Cc1cnc2nc(N)nc(N)c2n1)c1ccc(C(=O)N[C@@H](CCC(=O)O)C(=O)O)cc1 [methotrexate, reference compound]
growth-retardation of tumor implants (human colon cancer HT-29; 160 mg/kg body weight/dose): only marginal growth-retardation
